The values that follow come from patent EP1125931A1, “Biocidal alkyl-substituted-(hetero)aryl-ketoxime-O-ethers and the production method thereof” (Hunan Research Institute of Chemical Industry, priority 2000, dated 2001).

Read-outs that look alike come from different tables or passages of the source. Some results are limits rather than exact numbers.

What is called inhibition is the change of the read-out against control, counted positive when it falls.

The test system of series [1] is Spotted cutworm. Briefly: Biological activity (LC50) against spotted cutworm. In kind it is in vivo.
Series [2] has as its system Green peach aphid. Briefly: Biological activity (LC50) against green peach aphid. In kind it is in vivo.
For series [3], the system named is American tobacco cutworm. Put plainly: Biological activity (LC50) against American tobacco cutworm. Type of series: in vivo.
Series [4] relates to Spinach army worm. Briefly: Biological activity (LC50) against spinach army worm. Type of series: in vivo.
The test system of series [5] is fungal pathogens. Briefly: Test for antifungal activity (mycelial growth on PDA media). In kind it is cell-based. Conditions: against one or more fungal pathogens; concentration 100 ppm; 72 hours of cultivation; read-out: growth inhibition rate. Here is the method: Alkyl-substituted-(hetero)aryl-ketoxime-o-ether, ketone intermediate, or active oxime compound of this invention was diluted with an appropriate diluting agent (such as propanone) to prepare a parent solution having a certain concentration. One ml of this solution was taken with a pipette into 50 ml of molten PDA media. After shaking thoroughly, it was poured into two Petri dishes, to create duplicate. After cooling, a mycelial pad (diameter = about 4 mm) was taken and inoculated on the center of the culture dish. The diluting agent was used as the control. After inoculation, the dish was kept in an incubator set at an appropriate temperature. After 72 hours of cultivation, length (diameter of the colony) of the growth of mycelia was measured, and fungal growth inhibition rate was calculated.

For series [6], the system named is aphids Aphis fabae. Briefly: Test for the biological activity against aphids (seedling dip). Type of series: in vivo. As to conditions: after 24 hours; for lethal rate: at a lower concentration (than 250 ppm); for aphids killed: concentration 250 ppm (content of effective component), average of 3 tests. Here is the method:
Emulsion oil or wettable powder of the alkyl-substituted-(heteroaryl-ketoxime-o-ether, ketone intermediate or active oxime compound of this invention prepared by the method described in the Example for preparing a controlling agent in agriculture was diluted with water to prepare a solution of agricultural chemical having a certain concentration. Aphids were inoculated in the new seedlings (more than 15). Then, the seedlings, together with the aphids, were dipped in the solution of agricultural agent for 5 seconds, removed, and excess liquid was drained. They were placed in a water-absorbing sponge, and held by glass rods. After 24 hours, the number of live and dead aphids was examined. Test was run 3 times, and the results were averaged. With a series of compound (I) [Code No. 5, 8, 21, 22, 23, 30, 33, 46, 47, 48], the aphids were killed 100% when the concentration was 250 ppm (calculated as the content of effective component). Some compounds (I) [Code No. 5, 8, and 30 in Table 1] gave 100% lethal rate with the aphids, even at a lower concentration.

Series [7] concerns Mythimne separata. Briefly: Test for the biological activity against Mythimne separata (spray, Petri dish with corn fragments). In kind it is in vivo. Conditions: after 24 hours. Here is the method: Emulsion oil or wettable powder of the alkyl-substituted-(hetero)aryl-ketoxime-o-ether, intermediate ketone, or the active oxime compound of this invention prepared by the procedure described in the Examples for preparing a controlling agent in agriculture described above was diluted with water to prepare a solution of agricultural chemical having a certain concentration.
Ten heads of Mythimne separata and 5 pieces of corn fragments were placed in a Petri dish, and it was sprayed with a certain amount of agricultural chemical solution. After the exposure, it was kept in a room for normal cultivation. After 24 hours, number of live and dead insects were counted. Test was run 3 times, and results were averaged. […] Some compounds (I) [such as Code No. 5, 8, and 30] shown in Table 1] gave 100% lethal rate even when the concentration was lower than 500 ppm.

For series [8], the system named is leafhopper Nephotetlix cimeticeps. Briefly: Test for the biological activity against leafhopper (rice seedling dip). Type of series: in vivo. Conditions: after 24 hours; for kill rate: at a lower concentration (than 250 ppm); for leafhoppers killed: concentration 250 ppm (content of effective component), average of 3 tests. As for the experimental part: Emulsion oil or wettable powder of the alkyl-substituted-(hetero)aryl-ketoxime-o-ether, ketone intermediate, or active oxime compound of this invention prepared by the method described in the Example for preparing a controlling agent in agriculture was diluted with water to prepare a solution of agricultural chemical having a certain concentration. Rice seedlings (second semester) were dipped in the solution of agricultural agent for 5 seconds, and then removed. It was drained and then placed in a large test tube. Each test tube contained 20 seedlings. Then, 20 leafhoppers (5th instar) were introduced in the tube, and the mouth of the tube was covered with a white cheesecloth. The tube was kept at room temperature, and number of live and dead leafhoppers was examined after 24 hours. Test was run 3 times, and results were averaged.

The mark [9] stands for this setting: concentration 500 ppm (content of effective component), average of 3 tests.
[10] abbreviates: concentration lower than 500 ppm.

`CSC(C)C(=NOCc1cccc(Oc2ccccc2)c1)c1ccc(Cl)cc1` (stereo not shown) [Code No. 30 Z-form, 1-(4-chlorophenyl)-2-methylthio-O-((3-phenoxyphenyl)methyl) 1-propanone oxime]: the LC50 entry in series [1] (listed as 30 Z-form), in series [2] (listed as 30 Z-form), in series [3] (listed as 30 Z-form) and in series [4] (listed as 30 Z-form) was “LC50 (ppm) > 150” in each case.
With `CSC(C)C(=NOCc1cccc(Oc2ccccc2)c1)c1ccc(Cl)cc1` (stereo not shown) [Code No. 30 E-form, 1-(4-chlorophenyl)-2-methylthio-O-((3-phenoxyphenyl)methyl) 1-propanone oxime], the LC50 entry is on record as “LC50 (ppm) < 1.5” in series [1] (listed as 30 E-form), “LC50 (ppm) < 15” in series [2] (listed as 30 E-form), “LC50 (ppm) < 5” in series [3] (listed as 30 E-form) and “LC50 (ppm) < 5” in series [4] (listed as 30 E-form).
On to `CSCC(=NO)c1ccc(Cl)cc1` [compound (III) Code No. 5, 1-(4-chlorophenyl)-2-methylthio ethanone oxime], for which the inhibition at 100 ppm in series [5] is more than 90%.
Regarding `CSCC(=NOCc1cccc(Oc2ccccc2)c1)c1ccc(Cl)cc1` [Code No. 5], in series [6], the lethal rate turned out to be 100% and the aphids killed was 100%. In addition, the lethal rate entry in series [7] (setting [9]) is given as “exceeding 100%”. In addition, in series [7] (setting [10]), the lethal rate came out at 100%. In series [8], this molecule yielded a kill rate of 100% and a leafhoppers killed of 100%.
In series [6], `CSC(C)C(=NOCc1cccc(Oc2ccccc2)c1)c1ccc(Cl)cc1` (stereo not shown) [Code No. 30, 1-(4-chlorophenyl)-2-methylthio-O-((3-phenoxyphenyl)methyl) 1-propanone oxime] had a lethal rate of 100% and an aphids killed of 100%. The lethal rate result in series [7] (setting [9]) is recorded as “exceeding 100%”. Besides, the lethal rate in series [7] (setting [10]) was found to be 100%. In series [8], this molecule had a kill rate of 100% and a leafhoppers killed of 100%.
In the case of `CSCC(=NOCc1cccc(Oc2ccccc2)c1)c1ccc(Cl)cc1` [Code No. 5 E-form], the LC50 entry in series [1] is listed as “LC50 (ppm) < 5”; in series [2], “LC50 (ppm) > 100”; in series [3], “LC50 (ppm) < 10”; in series [4], “LC50 (ppm) < 5”.
